{"source": "paper PMC4097363", "about": "“Trace amines inhibit insect odorant receptor function through antagonism of the co-receptor subunit” (F1000Research, 2014)", "key": {"[1]": {"tested_on": "Onub\\Orco+Onub\\Or6", "assay": "Inhibition of odorant activation of heteromeric OR in Xenopus oocytes", "assay_type": "cell-based, Ostrinia nubilalis", "conditions": "activated by 1µM Z11-14:OAc; 10µM tryptamine or 100µM tyramine", "method": "(§1) Follicle cells were removed by treatment with collagenase B (Boehringer Mannheim) for 2 hours at room temperature. Capped cRNA encoding each OR subunit was generated using mMessage mMachine kits (Ambion). For heteromeric ORs, 25 ng of cRNA encoding each OR subunit was injected into Stage V-VI Xenopus oocytes. For expression of Orco homomers, 50 ng of cRNA was injected. Oocytes were incubated at 18°C in Barth's saline (in mM: 88 NaCl, 1 KCl, 2.4 NaHCO 3, 0.3 CaNO 3, 0.41 CaCl 2, 0.82 MgSO 4, 15 HEPES, pH 7.6, and 150µg/ml ceftazidime) for 2–5 days prior to electrophysiological recording.\n(§2) Odorant and Orco ligand induced currents were recorded under two-electrode voltage clamp, using an automated parallel electrophysiology system (OpusExpress 6000A, Molecular Devices). Oocytes were perfused with ND96 (in mM: 96 NaCl, 2 KCl, 1 CaCl 2, 1 MgCl 2, 5 HEPES, pH 7.5). Orco ligands were prepared as 50 or 100 mM stock solutions in DMSO and then diluted into ND96 on the day of the experiment. Odorants were prepared as 100 mM stock solutions in DMSO and then diluted into ND96. Unless otherwise noted, applications were for 60 sec at a flow rate of 1.0 ml/min, with extensive washing in ND96 at 4.6 ml/min between applications. Micropipettes were filled with 3 M KCl and had resistances of 0.2–2.0 MΩ. The holding potential was -70 mV. […]"}, "[2]": {"biological_target": "T1, Agam\\Orco (Anopheles gambiae, UniProt Q7QCC7)", "T1 sequence (Q7QCC7 1-478)": "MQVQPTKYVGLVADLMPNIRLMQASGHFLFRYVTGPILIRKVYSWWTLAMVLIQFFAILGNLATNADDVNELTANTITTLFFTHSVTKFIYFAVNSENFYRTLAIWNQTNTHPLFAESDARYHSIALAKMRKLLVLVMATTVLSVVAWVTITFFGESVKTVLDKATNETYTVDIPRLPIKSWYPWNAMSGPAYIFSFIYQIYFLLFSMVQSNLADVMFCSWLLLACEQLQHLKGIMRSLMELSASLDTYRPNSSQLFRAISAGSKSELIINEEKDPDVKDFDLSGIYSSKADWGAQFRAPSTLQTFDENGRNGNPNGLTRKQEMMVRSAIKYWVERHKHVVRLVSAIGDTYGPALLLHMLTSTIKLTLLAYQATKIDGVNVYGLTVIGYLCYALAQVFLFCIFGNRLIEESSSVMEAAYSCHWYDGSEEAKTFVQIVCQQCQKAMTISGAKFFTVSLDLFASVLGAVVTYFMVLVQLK", "assay": "Antagonism of OLC12 activation of Orco in Xenopus oocytes", "assay_type": "cell-based", "conditions": "30µM OLC12, 10µM tryptamine", "method": "as §1, §2"}, "[3]": {"biological_target": "T2, Dmel\\Orco (Drosophila melanogaster, UniProt Q9VNB5)", "T2 sequence (Q9VNB5 1-486)": "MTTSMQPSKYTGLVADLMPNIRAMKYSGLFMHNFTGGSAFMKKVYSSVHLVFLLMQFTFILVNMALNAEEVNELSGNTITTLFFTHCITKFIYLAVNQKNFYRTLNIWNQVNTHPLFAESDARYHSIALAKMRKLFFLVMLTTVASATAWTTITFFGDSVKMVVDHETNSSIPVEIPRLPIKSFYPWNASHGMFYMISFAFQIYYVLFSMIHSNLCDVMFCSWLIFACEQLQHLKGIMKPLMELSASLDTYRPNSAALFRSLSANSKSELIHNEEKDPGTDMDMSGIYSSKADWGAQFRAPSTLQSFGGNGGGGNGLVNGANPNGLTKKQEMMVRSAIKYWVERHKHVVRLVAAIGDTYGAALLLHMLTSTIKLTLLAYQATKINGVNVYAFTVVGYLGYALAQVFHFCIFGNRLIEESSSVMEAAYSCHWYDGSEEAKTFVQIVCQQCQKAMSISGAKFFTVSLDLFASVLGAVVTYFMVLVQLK", "assay": "Antagonism of OLC12 activation of Orco in Xenopus oocytes", "assay_type": "cell-based", "conditions": "20µM OLC12, 10µM tryptamine", "method": "as §1, §2"}, "[4]": {"biological_target": "T3, Agam\\Orco+Agam\\Or48 (Anopheles gambiae, UniProt Q7QCC7)", "T3 sequence (Q7QCC7 1-478)": "T1 sequence (Q7QCC7 1-478)", "assay": "Inhibition of odorant activation of heteromeric OR in Xenopus oocytes", "assay_type": "cell-based", "conditions": "activated by 3µM 2-nonanone; 10µM tryptamine or 100µM tyramine", "method": "as §1, §2"}, "[5]": {"tested_on": "Mcar\\Orco+Mcar\\Or5", "assay": "Inhibition of odorant activation of heteromeric OR in Xenopus oocytes", "assay_type": "cell-based, Megacyllene caryae", "conditions": "activated by 150µM 2-phenylethanol; 10µM tryptamine or 100µM tyramine", "method": "as §1, §2"}}}
{"smiles": "NCCc1c[nH]c2ccccc12", "note": "[tryptamine]", "values": [{"measurement": "inhibition of odorant activation of the OR", "setting": "[1]", "value": "substantial inhibition of each receptor"}, {"measurement": "inhibition of OLC12 activation of Orco", "setting": "[2]", "value": "inhibited OLC12 activation of Orco from each of these three insect species"}, {"measurement": "inhibition of OLC12 activation of Orco", "setting": "[3]", "value": "inhibited OLC12 activation of Orco from each of these three insect species"}, {"measurement": "inhibition of odorant activation of the OR", "setting": "[4]", "value": "able to inhibit odorant activation of the receptor"}, {"measurement": "inhibition of odorant activation of the OR", "setting": "[5]", "value": "substantial inhibition of each receptor"}]}
{"smiles": "NCCc1ccc(O)cc1", "note": "[tyramine]", "values": [{"measurement": "inhibition of odorant activation of the OR", "setting": "[1]", "value": "able to reduce odorant activation of these ORs, but was less effective than tryptamine"}, {"measurement": "inhibition of odorant activation of the OR", "setting": "[4]", "value": "able to inhibit odorant activation of each of these receptors, but was less effective than tryptamine"}, {"measurement": "inhibition of odorant activation of the OR", "setting": "[5]", "value": "able to reduce odorant activation of these ORs, but was less effective than tryptamine"}]}
